From patent US11708359B2, “Monoacylglycerol lipase modulators” (Janssen Pharmaceutica NV, priority 2020, dated 2023)

Target: human MGL from HeLa cells (Homo sapiens (Human), UniProt Q99685)
Assay: MGL in vitro activity assay ([glycerol-1,3-3H]-oleoyl glycerol cleavage, activated carbon filter)
Assay type: biochemical
Details: 300 nM [Glycerol-1,3-3H]-oleoyl glycerol, endogenously expressed MGL from HeLa cells, one hour incubation; read-out: MGL IC50
Procedure: The assay consists of combining endogenously expressed MGL from HeLa cells with test compounds, adding[glycerol-1,3-^3H]-oleoyl glycerol, incubating for one hour, and then measuring the amount of cleaved[1,3-^3H]-glycerol that passes through an activated carbon filter. The amount of cleaved, tritiated glycerol passing through the carbon filter is proportional to the activity of the MGL enzyme in a particular well/test condition.
Standard conditions for this assay combine 300 nM [Glycerol-1,3-^3H]-oleoyl glycerol with human MGL from HeLa cells and test compounds for one hour, after which the reaction is filtered through activated carbon and tritium is measured in the flow through. […] MGL is the predominant hydrolase in HeLa cells/cell homogenates.

Sequence of human MGL from HeLa cells (Q99685 whole entry): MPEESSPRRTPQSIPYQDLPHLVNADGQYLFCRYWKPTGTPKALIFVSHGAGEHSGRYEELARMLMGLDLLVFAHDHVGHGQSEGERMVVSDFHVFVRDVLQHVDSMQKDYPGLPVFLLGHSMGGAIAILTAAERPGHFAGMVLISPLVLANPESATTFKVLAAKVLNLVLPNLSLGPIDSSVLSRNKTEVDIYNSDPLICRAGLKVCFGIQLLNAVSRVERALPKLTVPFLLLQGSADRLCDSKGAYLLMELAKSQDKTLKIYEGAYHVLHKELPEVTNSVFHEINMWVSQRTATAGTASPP

SMILES	IC50 [nM]
CC(C)(C)c1cccc([C@H]2[C@@H]3CN(C(=O)[C@H]4C[C@]5(COC(=O)N5)C4)C[C@@]32C)c1 (stereo in doubt) [Example 93, (rac)-(2s,4*5)-2-((1*R,5*S,6*R)-6-(3-(tert-Butyl)phenyl)-1-methyl-3-azabicyclo[3.1.0]hexane-3-carbonyl)-7-oxa-5-azaspiro[3.4]octan-6-one]	0.76
CC(C)c1cccc([C@H]2[C@@H]3CN(C(=O)[C@H]4C[C@]5(COC(=O)N5)C4)C[C@@H]32)c1 [Example 84, (2s,4S)-2-((1R,5S,6S)-6-(3-Isopropylphenyl)-3-azabicyclo[3.1.0]hexane-3-carbonyl)-7-oxa-5-azaspiro[3.4]octan-6-one]	5.5
CC(C)(C)c1ccc([C@@]23C[C@@H]2CN(C(=O)[C@H]2C[C@]4(CCC(=O)N4)C2)C3)cc1 (stereo in doubt) [Example 14, (2r,4*S)-2-((1*R,5*5)-1-(4-(tert-Butyl)phenyl)-3-azabicyclo[3.1.0]hexane-3-carbonyl)-5-azaspiro[3.4]octan-6-one]	23
Cc1ccc(C23CC2CN(C(=O)[C@H]2C[C@]4(COC(=O)N4)C2)C3)cc1Cl (mixture of isomers) [Example 30, (rac)-(2s,4s)-2-(1-(3-Chloro-4-methylphenyl)-3-azabicyclo[3.1.0]hexane-3-carbonyl)-7-oxa-5-azaspiro[3.4]octan-6-one]	2.9
CCc1ccc(C23CC2CN(C(=O)[C@H]2C[C@]4(COC(=O)N4)C2)C3)cc1 (mixture of isomers) [Example 94, (rac)-(2s,4s)-2-(1-(4-Ethylphenyl)-3-azabicyclo[3.1.0]hexane-3-carbonyl)-7-oxa-5-azaspiro[3.4]octan-6-one]	3.5
CC1(c2ccc(C34CCN(C(=O)[C@H]5C[C@]6(CCC(=O)N6)C5)CC3C4)cc2)CC1 (mixture of isomers) [Example 70, (rac)-(2r,4s)-2-(6-(4-(1-Methylcyclopropyl)phenyl)-3-azabicyclo[4.1.0]heptane-3-carbonyl)-5-azaspiro[3.4]octan-6-one]	0.52
Cc1cc(C2CC2)ccc1C12CCN(C(=O)[C@H]3C[C@]4(COC(=O)N4)C3)CC1C2 (mixture of isomers) [Example 72, (rac)-(2s,4s)-2-(6-(4-Cyclopropyl-2-methylphenyl)-3-azabicyclo[4.1.0]heptane-3-carbonyl)-7-oxa-5-azaspiro[3.4]octan-6-one]	2.1
Cc1ccccc1[C@H]1[C@@H]2CN(C(=O)[C@H]3C[C@]4(COC(=O)N4)C3)C[C@@]21C (racemic) [Example 97, (rac)-(2s,4*S)-2-((1*R,5*S,6*R)-1-Methyl-6-(o-tolyl)-3-azabicyclo[3.1.0]hexane-3-carbonyl)-7-oxa-5-azaspiro[3.4]octan-6-one]	180
C[C@]12CN(C(=O)[C@H]3C[C@]4(COC(=O)N4)C3)C[C@H]1[C@@H]2c1ccc(OC(F)(F)F)cc1 (racemic) [Example 107, (rac)-(2s,4*5)-2-((1*R,5*S,6*R)-1-Methyl-6-(4-(trifluoromethoxy)phenyl)-3-azabicyclo[3.1.0]hexane-3-carbonyl)-7-oxa-5-azaspiro[3.4]octan-6-one]	73
CC(C)(C)c1cccc([C@H]2[C@@H]3CN(C(=O)[C@H]4C[C@]5(COC(=O)N5)C4)C[C@@H]32)n1 [Example 116, (2s,4S)-2-((1R,5S,6R)-6-(6-(tert-Butyl)pyridin-2-yl)-3-azabicyclo[3.1.0]hexane-3-carbonyl)-7-oxa-5-azaspiro[3.4]octan-6-one]	5.2
Cc1ccccc1[C@H]1[C@@H]2CN(C(=O)[C@H]3C[C@]4(COC(=O)N4)C3)C[C@@H]21 [Example 98, (2s,4S)-2-((1R,5S,6S)-6-(o-Tolyl)-3-azabicyclo[3.1.0]hexane-3-carbonyl)-7-oxa-5-azaspiro[3.4]octan-6-one]	150
CC(C)c1ccc(C23CC2CN(C(=O)[C@H]2C[C@]4(COC(=O)N4)C2)C3)cc1 (mixture of isomers) [Example 9, (rac)-(2s,4s)-2-(1-(4-Isopropylphenyl)-3-azabicyclo[3.1.0]hexane-3-carbonyl)-7-oxa-5-azaspiro[3.4]octan-6-one]	2.2
CC(C)(C)c1cccc([C@@H]2[C@H]3CN(C(=O)[C@H]4C[C@]5(COC(=O)N5)C4)C[C@]32C)c1 (stereo in doubt) [Example 100, (2s,4*R)-2-((1*S,5*R,6*5)-6-(3-(tert-Butyl)phenyl)-1-methyl-3-azabicyclo[3.1.0]hexane-3-carbonyl)-7-oxa-5-azaspiro[3.4]octan-6-one]	8.3
CC(C)(C)c1ccc(C23CCN(C(=O)[C@H]4C[C@]5(CCC(=O)N5)C4)CC2C3)cc1 (mixture of isomers) [Example 63, (rac)-(2r,4s)-2-(6-(4-(tert-Butyl)phenyl)-3-azabicyclo[4.1.0]heptane-3-carbonyl)-5-azaspiro[3.4]octan-6-one]	0.41
CC(C)c1ccc([C@H]2[C@@H]3CN(C(=O)[C@H]4C[C@]5(COC(=O)N5)C4)C[C@@H]32)cc1 [Example 90, (2s,4S)-2-((1R,5S,6S)-6-(4-Isopropylphenyl)-3-azabicyclo[3.1.0]hexane-3-carbonyl)-7-oxa-5-azaspiro[3.4]octan-6-one]	2.8
O=C1N[C@]2(CO1)C[C@H](C(=O)N1CCC3(c4ccccc4)C(Cl)C3C1)C2 (mixture of isomers) [Example 123, (rac)-(2s,4s)-2-(7-Chloro-6-phenyl-3-azabicyclo[4.1.0]heptane-3-carbonyl)-7-oxa-5-azaspiro[3.4]octan-6-one]	200
Cc1cccc(C23CC2CN(C(=O)[C@H]2C[C@]4(COC(=O)N4)C2)C3)c1 (mixture of isomers) [Example 21, (rac)-(2s,4s)-2-(1-(m-Tolyl)-3-azabicyclo[3.1.0]hexane-3-carbonyl)-7-oxa-5-azaspiro[3.4]octan-6-one]	14
Cc1ccc([C@]23CCN(C(=O)[C@H]4C[C@]5(COC(=O)N5)C4)C[C@H]2C3)cc1F (stereo in doubt) [Example 47, (2s,4*R)-2-((1*S,6*R)-6-(3-Fluoro-4-methylphenyl)-3-azabicyclo[4.1.0]heptane-3-carbonyl)-7-oxa-5-azaspiro[3.4]octan-6-one]	21
Cc1ccc(C23CC2CN(C(=O)[C@H]2C[C@]4(COC(=O)N4)C2)C3)cc1F (mixture of isomers) [Example 37, (rac)-(2s,4s)-2-(1-(3-Fluoro-4-methylphenyl)-3-azabicyclo[3.1.0]hexane-3-carbonyl)-7-oxa-5-azaspiro[3.4]octan-6-one]	10
CC(C)Cc1cccc([C@H]2[C@@H]3CN(C(=O)[C@H]4C[C@]5(COC(=O)N5)C4)C[C@@H]32)c1 [Example 101, (2s,4S)-2-((1R,5S,6S)-6-(3-Isobutylphenyl)-3-azabicyclo[3.1.0]hexane-3-carbonyl)-7-oxa-5-azaspiro[3.4]octan-6-one]	1.5
Cc1ccc(C23CCN(C(=O)[C@H]4C[C@]5(COC(=O)N5)C4)CC2C3)cc1F (mixture of isomers) [Example 46, (rac)-(2s,4s)-2-(6-(3-Fluoro-4-methylphenyl)-3-azabicyclo[4.1.0]heptane-3-carbonyl)-7-oxa-5-azaspiro[3.4]octan-6-one]	3.7
O=C1N[C@]2(CO1)C[C@H](C(=O)N1CC3CC3(c3ccc(OC(F)(F)F)cc3)C1)C2 (mixture of isomers) [Example 22, (rac)-(2s,4s)-2-(1-(4-(Trifluoromethoxy)phenyl)-3-azabicyclo[3.1.0]hexane-3-carbonyl)-7-oxa-5-azaspiro[3.4]octan-6-one]	16
CC(C)c1ccc([C@@]23C[C@@H]2CN(C(=O)[C@H]2C[C@]4(COC(=O)N4)C2)C3)cc1 (stereo in doubt) [Example 10, (2s,4*5)-2-((1*R,5*S)-1-(4-Isopropylphenyl)-3-azabicyclo[3.1.0]hexane-3-carbonyl)-7-oxa-5-azaspiro[3.4]octan-6-one]	2.3
C[C@]12CN(C(=O)[C@H]3C[C@]4(COC(=O)N4)C3)C[C@H]1[C@@H]2c1ccc(C2CC2)cc1 (racemic) [Example 108, (rac)-(2s,4*5)-2-((1*R,5*S,6*R)-6-(4-Cyclopropylphenyl)-1-methyl-3-azabicyclo[3.1.0]hexane-3-carbonyl)-7-oxa-5-azaspiro[3.4]octan-6-one]	38
O=C1N[C@]2(CO1)C[C@H](C(=O)N1CC3CC3(c3ccc(Oc4ccccc4)cc3)C1)C2 (mixture of isomers) [Example 28, (rac)-(2s,4s)-2-(1-(4-Phenoxyphenyl)-3-azabicyclo[3.1.0]hexane-3-carbonyl)-7-oxa-5-azaspiro[3.4]octan-6-one]	1.7
O=C1CC[C@]2(C[C@H](C(=O)N3C[C@@H]4[C@H](C3)[C@H]4c3ccc(C(F)(F)F)cc3)C2)N1 [Example 81, (2r,4S)-2-((1R,5S,6S)-6-(4-(Trifluoromethyl)phenyl)-3-azabicyclo[3.1.0]hexane-3-carbonyl)-5-azaspiro[3.4]octan-6-one]	206
O=C1N[C@]2(CO1)C[C@H](C(=O)N1C[C@@H]3[C@H](C1)[C@H]3c1cccc(OC(F)(F)F)c1)C2 [Example 38, (2s,4S)-2-((1R,5S,6S)-6-(3-(Trifluoromethoxy)phenyl)-3-azabicyclo[3.1.0]hexane-3-carbonyl)-7-oxa-5-azaspiro[3.4]octan-6-one]	21
CC1(c2ccc(C34CC3CN(C(=O)[C@H]3C[C@]5(CCC(=O)N5)C3)C4)cc2)CC1 (mixture of isomers) [Example 27, (rac)-(2r,4s)-2-(1-(4-(1-Methylcyclopropyl)phenyl)-3-azabicyclo[3.1.0]hexane-3-carbonyl)-5-azaspiro[3.4]octan-6-one]	9.5
CC(C)c1cccc(C23CCN(C(=O)[C@H]4C[C@]5(COC(=O)N5)C4)CC2C3)c1 (mixture of isomers) [Example 73, (rac)-(2s,4s)-2-(6-(3-Isopropylphenyl)-3-azabicyclo[4.1.0]heptane-3-carbonyl)-7-oxa-5-azaspiro[3.4]octan-6-one]	0.25
